These results are taken from patent publication US20090018211A1, “Method for inhibiting of COX2 and inflammation with phenolic aldehydes” (Board of Trustees of Michigan State University, priority 2007, published 2009).

For one experiment, the target named is T1, COX-2 enzyme (Homo sapiens, UniProt P35354).
T1 sequence (P35354 18-604): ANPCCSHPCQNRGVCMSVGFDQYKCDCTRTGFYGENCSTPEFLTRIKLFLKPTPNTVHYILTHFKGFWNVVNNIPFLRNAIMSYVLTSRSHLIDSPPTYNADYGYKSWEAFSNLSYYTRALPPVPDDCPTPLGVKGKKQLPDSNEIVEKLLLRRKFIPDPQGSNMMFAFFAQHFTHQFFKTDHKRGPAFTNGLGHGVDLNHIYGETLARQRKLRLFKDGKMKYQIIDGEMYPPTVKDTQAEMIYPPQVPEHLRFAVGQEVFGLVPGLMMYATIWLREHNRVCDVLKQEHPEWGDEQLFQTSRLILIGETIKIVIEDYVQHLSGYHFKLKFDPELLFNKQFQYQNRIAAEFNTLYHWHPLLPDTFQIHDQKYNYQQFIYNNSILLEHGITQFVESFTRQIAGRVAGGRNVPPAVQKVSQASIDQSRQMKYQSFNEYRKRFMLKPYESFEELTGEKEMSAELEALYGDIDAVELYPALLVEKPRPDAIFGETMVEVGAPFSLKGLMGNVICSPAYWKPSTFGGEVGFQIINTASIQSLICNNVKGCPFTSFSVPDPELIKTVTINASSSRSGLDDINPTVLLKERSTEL
Briefly: Cyclooxygenase inhibitory assay (oxygen consumption, arachidonic acid substrate), COX-2. Particulars: for COX-2 enzyme inhibition: at 100 ppm (FIG. 1). Type of experiment: biochemical. As to the method:
(§1) Cyclooxygenase enzyme inhibitory assay of the extracts and compounds were carried out using COX-1 and COX-2 enzymes according to the previously published procedures (Jayaprakasam, B. et al., 2006. J. Agric. Food Chem., 54, 5375-5381).
(§2) Cyclooxygenase Inhibitory Activity. The rate of oxygen consumption during the initial phase of the enzyme-mediated reaction, with arachidonic acid as substrate was measured using a Model 5300 biological oxygen monitor (Yellow Spring Instrument, Inc., Yellow Spring, Ohio). The test compounds, extracts and positive controls were dissolved in DMSO and an aliquot of 10 μL of each was added to the reaction chamber containing 0.6 mL of Tris buffer (0.1 M, pH 7) and, 1 mM of phenol, hemoglobin (17 μg). COX-1 or -2 enzymes (10 μL) was added to the chamber and incubated for 3 min. The reaction was initiated by the addition of arachidonic acid (10 μL of 1 mg/mL solution). Instantaneous inhibition was measured by using Quick Log Data acquisition and control computer software (Strawberry Tree Inc., Sunnyvale, Calif., USA). The percent inhibition was calculated with respect to DMSO control. Each sample was assayed twice and the standard deviation was calculated for n=2. Aspirin, Celebrex and Vioxx were used as positive controls.

A further experiment concerns the target T2, COX-1 enzyme (Ovis aries, UniProt P05979).
T2 sequence (P05979 25-600): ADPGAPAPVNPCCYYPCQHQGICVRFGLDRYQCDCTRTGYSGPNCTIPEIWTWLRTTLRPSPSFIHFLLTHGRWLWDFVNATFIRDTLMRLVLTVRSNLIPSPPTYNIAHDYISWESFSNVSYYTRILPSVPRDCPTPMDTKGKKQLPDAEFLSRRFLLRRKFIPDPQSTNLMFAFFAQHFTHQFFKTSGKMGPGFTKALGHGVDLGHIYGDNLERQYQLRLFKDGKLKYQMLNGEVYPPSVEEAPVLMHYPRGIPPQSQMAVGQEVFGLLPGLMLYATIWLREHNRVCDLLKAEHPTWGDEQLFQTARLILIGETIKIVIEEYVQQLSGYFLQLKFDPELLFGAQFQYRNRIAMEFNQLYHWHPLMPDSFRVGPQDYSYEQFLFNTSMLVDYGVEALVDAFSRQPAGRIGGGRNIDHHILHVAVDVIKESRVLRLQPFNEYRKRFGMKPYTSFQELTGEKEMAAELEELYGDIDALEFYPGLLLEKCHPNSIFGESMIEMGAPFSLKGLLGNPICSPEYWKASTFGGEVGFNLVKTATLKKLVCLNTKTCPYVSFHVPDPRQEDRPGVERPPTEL
Briefly: Cyclooxygenase inhibitory assay (oxygen consumption, arachidonic acid substrate), COX-1. Type of experiment: biochemical. Particulars: for COX-1 enzyme inhibition: at 100 ppm (FIG. 1). As to the method: as §1, §2

Consider `O=Cc1ccccc1` [A, Benzaldehyde], for which, at COX-2 enzyme, the COX-2 enzyme inhibition result is recorded as “not active”. Further, the COX-1 enzyme inhibition result at COX-1 enzyme is on record as “not active”.

For the compound `O=Cc1cccc(O)c1` [C, 3-hydroxybenzaldehyde], the “selective inhibition of COX-1 enzyme” value at COX-1 enzyme (FIG. 1, 100 ppm, versus COX-2) was “selectively inhibited COX-1 enzyme”.

What is called IC50 is the point on the concentration scale where inhibition reaches its midpoint. Regarding `O=Cc1ccc(O)c(O)c1O` [Compound J, 2,3,4-trihydroxybenzaldehyde], the “selective inhibition of COX-2 enzyme” value on COX-2 enzyme (FIG. 1, 100 ppm, versus COX-1) was “selectively inhibited COX-2 enzyme”. Also, the IC50 at COX-2 enzyme (dose response (FIG. 2), read-out: IC50, inhibition of COX-2 (converted)) was roughly 64.9 µM. In addition, the “activity on COX-1 enzyme” value at COX-1 enzyme (even at a 500 ppm concentration (FIG. 2)) is “not active”.

`O=Cc1cc(O)c(O)cc1O` [K, 2,4,5-trihydroxybenzaldehyde]: the COX-2 enzyme inhibition result at COX-2 enzyme is reported as “not active”. Moreover, at COX-1 enzyme, the COX-1 enzyme inhibition result was “not active”.
